Results reported in patent publication US20050282159A1, “Rpob gene of streptomyces, primer specific to streptomyces, and identification method of streptomyces having rifampin resistance or sensitivity by using the same” (priority 2001, published 2005).

Assays:
[1] = system: S. aureufaciens KCCM 40127; settings: TCG (TCC) genotype
Description: (§1) The primer sets of SEQ ID NOs: 1 and 2 were used to amplify rpoB genes of 60 strains, and nucleotides of the […] products were analyzed with an automatic sequencer. SRPOF1 as a forward primer and SRPOR1 as a backward primer were used.

[2] = system: S. antibioticus KCTC 1137; settings: TCG (TCC) genotype
Description: as §1

S. baldacii KCCM 41326 = settings: TCG (TCC) genotype
Description: as §1

[3] = system: S. violaceoruber KCTC 9787; settings: AAC genotype
Description: as §1

S. albaduncus KCTC 1741 = settings: AAC genotype
Description: as §1

S. rubiginosus KCTC 9042 = settings: AAC genotype
Description: as §1

[4] = system: S. griseostramineus KCCM 40526; settings: TCG (TCC) genotype
Description: as §1

[5] = system: S. coerulescens KCCM 40508; settings: TCG (TCC) genotype
Description: as §1

S. kifunensis KCTC 9734 = settings: TCG (TCC) genotype
Description: as §1

[6] = system: S. disatochromogenes KCCM 40449; settings: TCG (TCC) genotype
Description: as §1

[7] = system: S. flavotricini KCCM 40520; settings: TCG (TCC) genotype
Description: The primer sets of SEQ ID NOs: 1 and 2 were used to amplify rpoB genes of 60 strains, and nucleotides of the 352-bp products were analyzed with an automatic sequencer. SRPOF1 as a forward primer and SRPOR1 as a backward primer were used.

S. argenteolus KCTC 9695 = experiment: rifampin-sensitive test on Bennet solid media; type: cell-based; design: key: “(+)” indicates a genotype with rifampin-resistance; “(−)” indicates a genotype with rifampin-susceptibility; settings: TCG (TCC) genotype, 25 ug/ml rifampin, 72 hr
Description: (§2) The 47 strains were respectively cultured at 28° C. for 72 hr in Bennet liquid media. The culture solution was then inoculated on Bennet solid media (yeast extract 1 g/L, Beef extract 1 g/L, Tryptone 2 g/L, Glycerol 10 g/L, Agar 15 g/L) containing 25 ug/ml rifampin, and after incubation for 72 hr, rifampin-resistance was tested.

[8] = system: S. cuspidosporus KCTC 9718; experiment: rifampin-sensitive test on Bennet solid media; type: cell-based; design: key: “(+)” indicates a genotype with rifampin-resistance; “(−)” indicates a genotype with rifampin-susceptibility; settings: AAC genotype, 25 ug/ml rifampin, 72 hr
Description: as §2

S. albofaciens KCTC 9747 = experiment: rifampin-sensitive test on Bennet solid media; type: cell-based; design: key: “(+)” indicates a genotype with rifampin-resistance; “(−)” indicates a genotype with rifampin-susceptibility; settings: TCG (TCC) genotype, 25 ug/ml rifampin, 72 hr
Description: as §2

S. avidinii KCTC 9757 = experiment: rifampin-sensitive test on Bennet solid media; type: cell-based; design: key: “(+)” indicates a genotype with rifampin-resistance; “(−)” indicates a genotype with rifampin-susceptibility; settings: AAC genotype, 25 ug/ml rifampin, 72 hr
Description: as §2

S. echinoruber KCTC 9725 = experiment: rifampin-sensitive test on Bennet solid media; type: cell-based; design: key: “(+)” indicates a genotype with rifampin-resistance; “(−)” indicates a genotype with rifampin-susceptibility; settings: AAC genotype, 25 ug/ml rifampin, 72 hr
Description: as §2

[9] = system: S. achromogenes KCTC 1740; experiment: rifampin-sensitive test on Bennet solid media; type: cell-based; design: key: “(+)” indicates a genotype with rifampin-resistance; “(−)” indicates a genotype with rifampin-susceptibility; settings: TCG (TCC) genotype, 25 ug/ml rifampin, 72 hr
Description: as §2

S. aculeolatus KCTC 9680 = experiment: rifampin-sensitive test on Bennet solid media; type: cell-based; design: key: “(+)” indicates a genotype with rifampin-resistance; “(−)” indicates a genotype with rifampin-susceptibility; settings: AAC genotype, 25 ug/ml rifampin, 72 hr
Description: as §2

S. bikiniensis KCTC 9172 = experiment: rifampin-sensitive test on Bennet solid media; type: cell-based; design: key: “(+)” indicates a genotype with rifampin-resistance; “(−)” indicates a genotype with rifampin-susceptibility; settings: TCG (TCC) genotype, 25 ug/ml rifampin, 72 hr
Description: as §2

[10] = system: S. celluloflavus KCTC 9702; experiment: rifampin-sensitive test on Bennet solid media; type: cell-based; design: key: “(+)” indicates a genotype with rifampin-resistance; “(−)” indicates a genotype with rifampin-susceptibility; settings: TCG (TCC) genotype, 25 ug/ml rifampin, 72 hr
Description: as §2

S. almquistii KCTC 9751 = experiment: rifampin-sensitive test on Bennet solid media; type: cell-based; design: key: “(+)” indicates a genotype with rifampin-resistance; “(−)” indicates a genotype with rifampin-susceptibility; settings: TCG (TCC) genotype, 25 ug/ml rifampin, 72 hr
Description: as §2

[11] = system: S. griseus griseus KCTC 9080; experiment: rifampin-sensitive test on Bennet solid media; type: cell-based; design: key: “(+)” indicates a genotype with rifampin-resistance; “(−)” indicates a genotype with rifampin-susceptibility; settings: AAC genotype, 25 ug/ml rifampin, 72 hr
Description: as §2

[12] = system: S. antimycoticus KCTC 9694; experiment: rifampin-sensitive test on Bennet solid media; type: cell-based; design: key: “(+)” indicates a genotype with rifampin-resistance; “(−)” indicates a genotype with rifampin-susceptibility; settings: TCG (TCC) genotype, 25 ug/ml rifampin, 72 hr
Description: as §2

[13] = system: S. alanosinicus KCTC 9683; experiment: rifampin-sensitive test on Bennet solid media; type: cell-based; design: key: “(+)” indicates a genotype with rifampin-resistance; “(−)” indicates a genotype with rifampin-susceptibility; settings: AAC genotype, 25 ug/ml rifampin, 72 hr
Description: as §2

S. actuosus KCTC 9112 = experiment: rifampin-sensitive test on Bennet solid media; type: cell-based; design: key: “(+)” indicates a genotype with rifampin-resistance; “(−)” indicates a genotype with rifampin-susceptibility; settings: TCG (TCC) genotype, 25 ug/ml rifampin, 72 hr
Description: as §2

[14] = system: S. albireticuli KCTC 9685; experiment: rifampin-sensitive test on Bennet solid media; type: cell-based; design: key: “(+)” indicates a genotype with rifampin-resistance; “(−)” indicates a genotype with rifampin-susceptibility; settings: TCG (TCC) genotype, 25 ug/ml rifampin, 72 hr
Description: as §2

S. alboniger KCTC 9014 = experiment: rifampin-sensitive test on Bennet solid media; type: cell-based; design: key: “(+)” indicates a genotype with rifampin-resistance; “(−)” indicates a genotype with rifampin-susceptibility; settings: TCG (TCC) genotype, 25 ug/ml rifampin, 72 hr
Description: as §2

S. cinerous KCTC 9066 = experiment: rifampin-sensitive test on Bennet solid media; type: cell-based; design: key to genotype (rifampin-resistance or susceptibility): “(+)” indicates a genotype with rifampin-resistance; “(−)” indicates a genotype with rifampin-susceptibility
Description: as §2

S. alboviridis KCTC 9750 = experiment: rifampin-sensitive test on Bennet solid media; type: cell-based; design: key to genotype (rifampin-resistance or susceptibility): “(+)” indicates a genotype with rifampin-resistance; “(−)” indicates a genotype with rifampin-susceptibility
Description: as §2

## CO[C@H]1/C=C/O[C@@]2(C)Oc3c(C)c(O)c4c(O)c(c(/C=N/N5CCN(C)CC5)c(O)c4c3C2=O)NC(=O)/C(C)=C\C=C\[C@H](C)[C@H](O)[C@@H](C)[C@@H](O)[C@@H](C)[C@H](OC(C)=O)[C@@H]1C [rifampin]
[1]
  genotype (rifampin-resistant or -sensitive strain): −
[2]
  genotype (rifampin-resistant or -sensitive strain): −
S. baldacii KCCM 41326
  genotype (rifampin-resistant or -sensitive strain): −
[3]
  genotype (rifampin-resistant or -sensitive strain): +
S. albaduncus KCTC 1741
  genotype (rifampin-resistant or -sensitive strain): +
S. rubiginosus KCTC 9042
  genotype (rifampin-resistant or -sensitive strain): +
[4]
  genotype (rifampin-resistant or -sensitive strain): −
[5]
  genotype (rifampin-resistant or -sensitive strain): −
S. kifunensis KCTC 9734
  genotype (rifampin-resistant or -sensitive strain): −
[6]
  genotype (rifampin-resistant or -sensitive strain): −
[7]
  genotype (rifampin-resistant or -sensitive strain): −
S. argenteolus KCTC 9695
  genotype (rifampin-resistance or susceptibility): −
[8]
  genotype (rifampin-resistance or susceptibility): +
S. albofaciens KCTC 9747
  genotype (rifampin-resistance or susceptibility): −
S. avidinii KCTC 9757
  genotype (rifampin-resistance or susceptibility): +
S. echinoruber KCTC 9725
  genotype (rifampin-resistance or susceptibility): +
[9]
  genotype (rifampin-resistance or susceptibility): −
S. aculeolatus KCTC 9680
  genotype (rifampin-resistance or susceptibility): +
S. bikiniensis KCTC 9172
  genotype (rifampin-resistance or susceptibility): −
[10]
  genotype (rifampin-resistance or susceptibility): −
S. almquistii KCTC 9751
  genotype (rifampin-resistance or susceptibility): −
[11]
  genotype (rifampin-resistance or susceptibility): +
[12]
  genotype (rifampin-resistance or susceptibility): −
[13]
  genotype (rifampin-resistance or susceptibility): +
S. actuosus KCTC 9112
  genotype (rifampin-resistance or susceptibility): −
[14]
  genotype (rifampin-resistance or susceptibility): −
S. alboniger KCTC 9014
  genotype (rifampin-resistance or susceptibility): −
S. cinerous KCTC 9066; S. cinerous (KCTC 9066), Bennet solid media, FIG. 7 (A)
  growth in media containing rifampin: generated colonies
S. cinerous KCTC 9066; S. cinerous KCTC 9066, AAC genotype, 25 ug/ml rifampin, 72 hr
  genotype (rifampin-resistance or susceptibility): +
S. alboviridis KCTC 9750; S. alboviridis (KCTC 9750), Bennet solid media, FIG. 7 (B)
  growth in media containing rifampin: did not show growth
S. alboviridis KCTC 9750; S. alboviridis KCTC 9750, TCG (TCC) genotype, 25 ug/ml rifampin, 72 hr
  genotype (rifampin-resistance or susceptibility): −
